Reference: patent US11780821B2, “Inhibitors of fibroblast activation protein” (Praxis Biotech LLC, priority 2017, dated 2023)

How the values were obtained:
[1] = PK study in hamsters (IV and PO); format: in vivo; details: male, Golden Syrian, plasma, hamster
Protocol: To assess the effect of FAP inhibition by an exemplary compound over the cleavage of endogenously produced FGF21, in vivo PK/PD studies were conducted in male Golden Syrian hamsters following single intravenous and oral administration of an exemplary compound. Compound 13 (an exemplary compound) was formulated in dimethyl sulfoxide (DMSO)/Solutol® HS 15 (BASF, Germany)/phosphate buffered saline (PBS, Sigma, USA) (5/5/90, v/v/v) at 0.2 mg/mL for IV injection and polyethylene glycol (PEG) 200 (Sigma, USA)/water for injection (WFI; Tai-Yu, Taiwan) (50/50, v/v) at 1 mg/mL for PO administration. The dosing volumes were 5 mL/kg for IV and 10 mL/kg for PO. Hamsters from Group 1 received an intravenous bolus via jugular vein of 1 mg/kg of compound 13 (an exemplary compound). On the other hand, hamsters from Group 2 received an intragastric bolus of 10 mg/kg of compound 13 (an exemplary compound) using feeding needles. Plasma samples were collected at 5, 10, 15, 30, 60, 120, 240, 360, 480 and 1440 minutes post-dose in both IV and PO groups. Hamsters from group 3 were not dosed and were used to collect samples of zero time point and baseline levels of FAP activity and endogenous FGF21. […]

[2] = target: T1, recombinant mouse FAPα (rmFAPα) (Mus musculus, UniProt P97321); assay: FAPα enzymatic exopeptidase (dipeptidase) activity assay; format: biochemical; details: 1 μM test compound; Z-Gly-Pro-AMC substrate; read-out: rmFAPα (% exo inh @ 1 μM)
T1 construct: purchased R&S system (so in the source)
T1 sequence (P97321 1-761): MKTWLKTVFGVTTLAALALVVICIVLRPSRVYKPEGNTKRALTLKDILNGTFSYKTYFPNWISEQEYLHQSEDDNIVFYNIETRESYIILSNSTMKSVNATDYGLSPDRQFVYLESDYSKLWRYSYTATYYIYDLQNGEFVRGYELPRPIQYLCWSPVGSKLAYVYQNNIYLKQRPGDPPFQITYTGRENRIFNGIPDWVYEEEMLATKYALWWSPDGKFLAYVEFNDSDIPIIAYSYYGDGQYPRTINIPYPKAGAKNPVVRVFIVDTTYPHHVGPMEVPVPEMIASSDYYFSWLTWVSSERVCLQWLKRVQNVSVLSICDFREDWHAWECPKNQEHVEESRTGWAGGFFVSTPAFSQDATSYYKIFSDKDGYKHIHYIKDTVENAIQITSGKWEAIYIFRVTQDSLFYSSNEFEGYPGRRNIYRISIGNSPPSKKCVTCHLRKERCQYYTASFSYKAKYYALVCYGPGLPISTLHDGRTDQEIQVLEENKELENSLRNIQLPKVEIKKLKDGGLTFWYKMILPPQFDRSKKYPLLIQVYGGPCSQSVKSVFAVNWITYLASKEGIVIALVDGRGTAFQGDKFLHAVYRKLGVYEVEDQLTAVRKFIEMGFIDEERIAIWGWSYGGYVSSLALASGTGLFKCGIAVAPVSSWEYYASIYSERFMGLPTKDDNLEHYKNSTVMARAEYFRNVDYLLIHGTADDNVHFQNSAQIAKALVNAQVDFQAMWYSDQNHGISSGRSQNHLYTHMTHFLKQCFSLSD
Summary of the method: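 AMC release read by fluorescence at Ex/Em 380/460 nm. Substrate-only (no enzyme) wells subtracted as blank; percent inhibition relative to vehicle + enzyme + substrate as maximal activity. Single-point measurement, run in duplicate.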

| Structure (SMILES) | AUC(0-t) ([1]; intravenous 1 mg/kg) [ng·h/mL] | AUC(0-t) ([1]; oral 10 mg/kg) [ng·h/mL] | inhibition at 1 µM [2] [%] |
| --- | --- | --- | --- |
| N#C[C@@H]1CC(F)(F)CN1C(=O)CNC(=O)c1ccncc1-c1ccccc1 [Compound 13, (S)—N-(2-(2-cyano-4,4-difluoropyrrolidin-1-yl)-2-oxoethyl)-3-phenylisonicotinamide] | 255 | 350 | – |
| N#C[C@@H]1CC(F)(F)CN1C(=O)CNC(=O)c1c[nH]c(=O)c2ccccc12 [Example 1, (S)—N-(2-(2-cyano-4,4-difluoropyrrolidin-1-yl)-2-oxoethyl)-1-oxo-1,2-dihydroisoquinoline-4-carboxamide] | – | – | > 50 |
